From US8039501B2, “Synephrine derivatives useful as anti-inflammatory agents” (Universiteit Gent, priority 2005, dated 2011)

Legend:
MCF7 breast cancer cells = assay: Human Cancer Pathway Finder GEarray hybridization, MCF7 cells; assay type: cell-based; conditions: 10^−5 M
Experimental: mRNA of MCF7 breast cancer cells left untreated or treated with CpdA was analyzed for variation in gene expression by means of RNase protection analysis and nylon arrayfilter hybridization (SuperArray filters i.e. cancer pathway finder and stress and toxicity pathway array). From these experiments it can be derived that the synephrine analogues show a unique gene expression profile with respect to target genes involved in apoptosis, cell cycle, metastasis, angiogenesis, stress responses, and the like. At the same time, the synephrine analogue-induced gene expression prophile is distinct from the gene expression response observed with classical glucorticoids.
For the total RNA extraction, 10^5 cell were homogenized in 1 ml of TRIzol Reagent (GIBCO BRL), incubated 5 minutes at room temperature; then added 200 μl chloroform, vortexed 15 seconds. Mix was incubated on ice for 5 minutes. Phase separation was done by centrifugation at 12000 rpm for 15 minutes at 4° C. […]
Membranes were washed twice with 5 ml of pre-warmed wash solution 2×SSC, 1% SDS for 10 minutes at 68° C. with agitation at 30-40 rpm/minute. […] Visualization and quantitation of radioactive bands was carried out by a Phosphorlmager and scanned using a bioimaging analyzer (Personal Molecular Imager® FX Bio-Rad). Densitometry analysis of autoradiograms was performed using Quantity One (Bio-Rad). […]

NF-κB = assay: EMSA of NF-κB DNA binding in Namalwa B cells; assay type: cell-based, human; conditions: 10, 0.1, 0.01, 0.001 μM, TNF 2000 IU/ml, FIG. 8B

SMILES: CNCC(Cl)c1ccc(OC(C)=O)cc1.Cl (centres unmarked) [CpdA, 2-(4-acetoxyphenyl)-2-chloro-N-methyl-ethylammonium chloride]
- Expression of cancer target genes TP53, TNFRSF12, MAP2K1, RAF, ITGA6, NCAM, PDGF, MMP9, MTA1, TIMP1 (MCF7 breast cancer cells): represses
- NF-κB binding to kB DNA sequence (EMSA) (NF-κB): inhibits NF-κB binding to kB DNA sequence
